Consider ten compounds from publication PMC9403717, “Ruthenium complexes show potent inhibition of AKR1C1, AKR1C2, and AKR1C3 enzymes and anti-proliferative action against chemoresistant ovarian cancer cell line” (Frontiers in Pharmacology, 2022).

Changes are numbered by the printed parent chain. Where two headings read alike, the source gives them in different places. Where only a bound is given, the exact number is not on record here.

The target of assay [1] is T1, AKR1C2 (Homo sapiens, UniProt P52895).
T1 construct: made in house
T1 sequence (P52895 1-323): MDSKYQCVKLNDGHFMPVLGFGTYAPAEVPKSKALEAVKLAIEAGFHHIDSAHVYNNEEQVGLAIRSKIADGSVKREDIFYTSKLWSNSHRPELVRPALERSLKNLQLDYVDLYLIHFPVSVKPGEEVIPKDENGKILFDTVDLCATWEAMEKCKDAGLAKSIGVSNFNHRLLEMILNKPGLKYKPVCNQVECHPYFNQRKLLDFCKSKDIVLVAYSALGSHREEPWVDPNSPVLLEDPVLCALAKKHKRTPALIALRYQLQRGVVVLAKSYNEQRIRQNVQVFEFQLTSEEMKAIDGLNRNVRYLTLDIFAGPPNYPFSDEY
Further details: method as in Bauman et al., 2005. To be noted: ref Bauman et al., 2005; cited from earlier work.

Assay [2] has as its system COV362 cells. Description: Cell migration assay (Ibidi culture inserts), COV362. It is filed as cell-based, human. To be noted: 100 μM, 24 and 48 h. As to the method:
Cell migration assay was performed using Ibidi® three-well culture inserts. The inserts were placed in six-well plates. In total, 70 µL of cell suspension was seeded in the inserts and allowed to adhere and grow for 24 h. When the cells formed a confluent monolayer, the inserts were carefully removed and the cells were washed two times with DPBS. Cells were treated with 100 μM (final concentration) of compounds 8, 9, cisplatin, and carboplatin in 2 ml of growth medium. Cells treated with a medium containing the same volume of sterile water or DMSO were used as the controls. Images of cell gaps were taken with Axio Scope A1 Polarized Light Microscope (Zeiss) at the time of treatment, 24 and 48 h after, and analyzed using ImageJ software.

Assay [3] relates to COV362 cells. Description: Cell proliferation assay (alamarBlue), chemoresistant ovarian cancer cell line COV362. It is filed as cell-based, human. To be noted: for IC50: 48 h incubation. As to the method:
(§1) The cell line COV362 (CVCL_2,420) was originally established from a high-grade ovarian serous adenocarcinoma from a metastatic site in the pleural effusion ([van den Berg-Bakker et al., 1993]) and was purchased from ECACC (ECACC 07071910) as p37 on 13 October 2017. The growth medium for COV362 cells was DMEM (D5546; Sigma–Aldrich GmbH), with 10% FBS (F9665; Sigma–Aldrich GmbH) and 2 mM L-glutamine (G7513; Sigma–Aldrich GmbH). COV362 cells in passages p37 + 12 to p37 + 17 were used in this study and seeded at a concentration of 3.5 cells/ml × 10^4 cells/ml for proliferation studies and at a concentration of 5.3 × 10^5/ml for migration studies. The cell line OVCAR-4 (CVCL_1,627) is a high-grade serous ovarian adenocarcinoma cell line established from a patient refractory to cisplatin ([Johnson et al., 1997]). The cell line was purchased from Merck on 19 March 2021. The growth medium for OVCAR-4 cells was RPMI-1640 (Sigma R5586) supplemented with 2 mM glutamine (G7513; Sigma–Aldrich GmbH), 10% FBS (F9665; Sigma–Aldrich GmbH), 0.25 μg/ml insulin (I9278; Sigma–Aldrich GmbH). OVCAR-4 cells in passages p+6 to p+15 were used in this study and seeded at a concentration of 6 cells/ml × 10^4 cells/ml. The control cell line HIO80 (CVCL_E274) was obtained from Andrew K. Godwin (University of Kansas Medical Center, Kansas, United States) on 20 October 2017 as p+72. It was originally established from ovarian surface epithelium ([Yang et al., 2004]). HIO80 cells were grown in RPMI medium (R5886, Sigma–Aldrich GmbH) supplemented with 10% FBS (F9665; Sigma–Aldrich GmbH), 2 mm L-glutamine (G7513; Sigma–Aldrich GmbH) and 6.6 µg/ml insulin (I9278; Sigma–Aldrich GmbH). HIO80 cells in passages p72 + 8 to p72 + 19 were used in this study and seeded at a concentration of 2 × 10^4 cells/mL. HIO80 in passage +10 was authenticated by short tandem repeats (STR) profiling performed by ATCC on 22 February 2019. Cells were grown in a humidified atmosphere containing 5% CO2 at 37°C. All cell lines were negative for mycoplasma infection which was periodically tested using MycoAlert^TM mycoplasma detection kit (Lonza, Basel, Switzerland).
(§2) The effect of ruthenium compounds on the proliferation of ovarian cancer cell lines COV362 and OVCAR-4 and the control cell line HIO80 was analyzed using the cell proliferation reagent alamarBlue HS (A50101; Thermo Fisher Scientific) following the manufacturer’s instructions.
(§3) Cells were seeded in 96-well plates in 100 µL of medium and allowed to adhere and grow for 24 h. […] Cisplatin and carboplatin purchased from Sigma–Aldrich GmbH (cat. number: PHR1624, lot: LRAB7778) and (cat. number: C2538, lot: MKCK1243) were dissolved in sterile water. Working solutions were prepared by a serial dilution of stock solutions with a culture medium. After the initial incubation, cells were treated with ruthenium complexes, cisplatin, and carboplatin. A range of final concentrations between 0.001 and 300 µM were used for ruthenium complexes and cisplatin, and between 0.001 µM and 1 mM for carboplatin. After 48 h of incubation, plates were incubated with 20 µL of alamarBlue. After 4 h absorbance was measured with a BioTek microplate spectrophotometer at 570 nm, with the reference wavelength set at 600 nm. First, the background value of a well containing the active substance without cells was subtracted, then the average values for duplicates/triplicates were calculated. The absorbance of the well containing only untreated cells was used as a normalization control. The half-maximal […] concentration (IC50) was determined for all ruthenium complexes with a growth-inhibiting effect on cells by constructing a dose-response curve (Graph Pad Prism, Version 8.0).

The subject of a further assay is HIO80 cells. The experiment in a line: Cell proliferation assay (alamarBlue), control cell line HIO80. It is filed as cell-based, human. To be noted: 48 h incubation. Here is the method:
as §1, §2, §3
A general note: The colour change of resazurin is a common sign of viable cells or microbes.

In another assay the test system is OVCAR-4 cells. Description: Cell proliferation assay (alamarBlue), OVCAR-4. It is filed as cell-based, human. To be noted: OVCAR-4; 48 h incubation. Here is the method:
as §1, §2, §3

Another assay deals with T2, AKR1C1 (Homo sapiens, UniProt Q04828).
T2 construct: made in house
T2 sequence (Q04828 1-323): T1 sequence (P52895 1-323) with V38T, H47R, V54L, S87C, M151V, H170R, L172Q
The experiment in a line: Inhibition of recombinant AKR1C1, oxidation of 1-acenaphthenol, progress-curve analysis. It is filed as biochemical. As to the method: (§4) To investigate the effect of ten selected ruthenium compounds, we measured their effect on the time course of oxidation of the artificial substrate 1-acenaphtenol by recombinant enzymes AKR1C1–3. The recombinant enzymes AKR1C1–AKR1C3 were prepared as described previously ([Brozic et al., 2006]). Since the artificial substrate is racemic, the oxidation follows a double exponential pattern as described previously ([Traven et al., 2015]). The in vitro catalytic activity of AKR1C1–3 enzymes was determined spectrophotometrically by monitoring the increase in NADH absorbance at 340 nm (ε(λ340) = 6220 M^−1cm^−1) in the presence of the substrate 1-acenaphthenol. Enzymatic reactions (300 µL) were performed in 100 mm potassium phosphate buffer (pH 9.0), 0.005% (v/v) TritonX-114, 5% (v/v) DMSO, containing 2.3 mm NAD^+ and 1-acenaphthenol at final concentrations of 90, 180, and 250 µM for AKR1C1, AKR1C2, and AKR1C3, respectively. A total of 5 µL of a tested compound in DMSO was added to the reaction mixture. The final concentrations of the tested compounds ranged from 1 to 200 μM, depending on the extent of inhibition (Supplementary Data). The reaction was started by adding 15 µL of AKR1C1, AKR1C2, or AKR1C3 dissolved in 1x PBS (pH 7.3) at final concentrations of 0.11, 0.16, and 1.5 µM, respectively. AKR1C1–3 activity was measured at 37°C for 3 h without shaking using a PowerWave XS microplate reader (Biotek; Winooski, VT, United States). Measurements at seven different concentrations were performed in duplicates or triplicates (Supplementary Figures S2). To mechanistically explain all the obtained progress curves for each ruthenium complex on each enzyme by a common reaction scheme, we extended the originally proposed scheme so that the interaction of the ruthenium complex with apo- and holoenzyme was allowed to be rapid and followed by a slow irreversible association of a second ruthenium complex molecule. However, the affinity of the Ru complexes for the apoenzymes was much lower so this part was excluded from the proposed kinetic model for clarity (Figure 4).
(§5) FIGURE 4 Reaction scheme for the oxidation of 1-acenaphtenol by AKR1C1-3 and its inhibition by ruthenium compounds. E represents apoenzyme, E-NAD and E-NADH represent holoenzyme with bound NAD^+ and NADH, respectively. A and B are enantiomers of substrate 1-acenaphtenol. Symbols which include I (ruthenium compound) represent holoenzyme in complex with one or two inhibitor molecules. KNAD, KNADH, and K2-3 are equilibrium constants and k+2–3 are second-order association rate constants for the binding of the second inhibitor molecule to the enzyme. The progress curves for each enzyme in the presence of ruthenium complexes were analyzed by the WEB server ENZO (https://enzo.cmm.ki.si/) designed exactly for such purposes ([Bevc et al., 2011]).

The target of assay [4] is T1, AKR1C2. The experiment in a line: Inhibition of recombinant AKR1C2, oxidation of 1-acenaphthenol, progress-curve analysis. It is filed as biochemical. Conditions: AKR1C2. Here is the method:
as §4, §5

Assay [5] deals with T3, AKR1C3 (Homo sapiens, UniProt P42330).
T3 construct: made in house
T3 sequence (P42330 1-323): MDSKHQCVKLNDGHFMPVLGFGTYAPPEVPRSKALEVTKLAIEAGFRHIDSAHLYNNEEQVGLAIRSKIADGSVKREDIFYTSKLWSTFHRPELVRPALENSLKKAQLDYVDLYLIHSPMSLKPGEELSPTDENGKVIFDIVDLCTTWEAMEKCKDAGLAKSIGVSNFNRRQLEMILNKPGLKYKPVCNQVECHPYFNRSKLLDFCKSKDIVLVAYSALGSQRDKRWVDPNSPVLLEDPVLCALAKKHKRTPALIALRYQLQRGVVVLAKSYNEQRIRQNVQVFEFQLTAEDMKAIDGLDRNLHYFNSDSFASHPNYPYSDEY
The experiment in a line: Inhibition of recombinant AKR1C3, oxidation of 1-acenaphthenol, progress-curve analysis. It is filed as biochemical. Conditions: AKR1C3. Here is the method: as §4, §5

Assay [6] has as its target T3, AKR1C3. Further details: method as in Traven et al., 2015. Conditions: ref Traven et al., 2015; cited from earlier work.
Assay [7] has as its target T3, AKR1C3. Further details: method as in Qiu et al., 2007. Conditions: ref Qiu et al., 2007; cited from earlier work.
In a further assay the test system is MCF-7. Conditions: ref Kljun et al., 2016; cited from earlier work.
[8] abbreviates: irreversible binding of second inhibitor molecule to E-NAD-I.
Setting [9] is: reversible binding to holoenzyme E-NAD, read-out: K2.

For the compound `C[C@H](CCC(=O)O)[C@H]1CC[C@H]2[C@@H]3CC[C@@H]4CC(=O)CC[C@]4(C)[C@H]3CC[C@]12C` [5β-cholanic acid-3-one], the Ki at AKR1C2 [1] is 0.021 µM.
What is called IC50 is the point on the concentration scale where inhibition reaches its midpoint. Higher therefore signals a need for much substance. On to `N.N.O=C([O-])C1(C(=O)[O-])CCC1.[Pt+2]` [Carboplatin, reference compound], for which, in the assay on COV362 cells [2], the “effect on cell migration (in words)” value is “Significant cell migration was observed”. The IC50 in the assay with COV362 cells [3] is 272 µM; in the assay with HIO80 cells, 131 µM; with OVCAR-4 cells, 73 µM.
In the case of `N.N.[Cl][Pt][Cl]` [Cisplatin, reference compound], the IC50 in the assay with COV362 cells [3] came out at 13.6 µM; in the assay on HIO80 cells, 6.96 µM; in the assay with OVCAR-4 cells it was 4.16 µM.
In the case of `Oc1c(I)cc(Cl)c2cccnc12` [Clioquinol, reference compound], the “fold lower IC50 value compared to Ru-pta complex 8” value in the assay with COV362 cells [3] was found to be 1.9 fold. The compound also gave a half-maximal inhibitory concentration (IC50) in the assay on COV362 cells [3] (Homo sapiens) of 20.1 µM.
Regarding `CN(C)c1ccc(C(=O)C=C([O][Ru+][PH]23CN4CN(CN(C4)C2)C3)C(F)(F)F)cc1.Cc1ccc(C(C)C)cc1.F[P-](F)(F)(F)(F)F` [Compound 4, (η^6-p-cymene)(4,4,4-trifluoro-1-(4-(dimethylamino)phenyl)-1,3-butandionato)(pta)ruthenium(II) hexafluorophosphate], the figures for the “k+2” value at AKR1C1 (setting [8]), on AKR1C2 [4] (setting [8]) and at AKR1C3 [5] (setting [8]) were 1.4 M⁻¹ s⁻¹, 1.9 M⁻¹ s⁻¹ and 1.8 M⁻¹ s⁻¹, respectively. Further, the Ki at AKR1C1 (setting [9]) came out at 86.9 µM; on AKR1C2 [4] (setting [9]), 340 µM; on AKR1C3 [5] (setting [9]) it was 441 µM.
In the case of `Cc1ccc(C(C)C)cc1.Cc1ccc(C(C)C)cc1.[Cl][Ru][Cl].[Cl][Ru][Cl]` [Compound P1, [(η^6-p-cymene)RuCl(μ-Cl)]2], at AKR1C3 [6], the “Ki values (in words)” value is reported as “nM Ki values”.
Consider `CC1(C)CC[C@@]2(CC[C@H]3[C@@H]4CCc5cc(C(N)=O)ccc5[C@H]4CC[C@@]32C)OC1=O` [EM1404], for which the Ki on AKR1C3 [7] was 0.0069 µM.
For the compound `O=[N+]([O-])c1ccc(O)c2ncccc12` [Nitroxoline, reference compound], the “fold lower IC50 compared to Ru-chlorido complex 9” value in the assay on COV362 cells [3] came to 4 fold. Further, the IC50 in the assay with COV362 cells [3] (Homo sapiens) came out at 6.6 µM.
`Cc1ccc(C(C)C)cc1.[Cl][Ru]([Cl])[PH]12CN3CN(CN(C3)C1)C2` [RAPTA-C, reference compound]: in the assay with COV362 cells [3], the IC50 is over 300 µM.
Consider `[O-][n+]1ccccc1S` [pyrithione], for which the “IC50 values (in words)” value in the assay on MCF-7 is on record as “low µM”.
